Results published in patent US9249129B2, “Morpholino substituted urea derivatives as mTOR inhibitors” (CELLZOME LIMITED, priority 2010, dated 2016).
pIC50: −log10 of the molar value.

Key:
Test in all cases: kinobeads assay with mass spectrometry detection of kinases (kinase selectivity profile)
Format in all cases: binding
kinases (kinome) [1] = target: T1, kinases (kinome) (Homo sapiens, UniProt Q9UHD2); conditions: TBK1 (Other), IPI00293613
T1 construct: determined in kinobeads assays with mass spectrometry detection of kinases as described previously; endogenous in cells; host or cells: cell lysate
T1 sequence (Q9UHD2 1-729): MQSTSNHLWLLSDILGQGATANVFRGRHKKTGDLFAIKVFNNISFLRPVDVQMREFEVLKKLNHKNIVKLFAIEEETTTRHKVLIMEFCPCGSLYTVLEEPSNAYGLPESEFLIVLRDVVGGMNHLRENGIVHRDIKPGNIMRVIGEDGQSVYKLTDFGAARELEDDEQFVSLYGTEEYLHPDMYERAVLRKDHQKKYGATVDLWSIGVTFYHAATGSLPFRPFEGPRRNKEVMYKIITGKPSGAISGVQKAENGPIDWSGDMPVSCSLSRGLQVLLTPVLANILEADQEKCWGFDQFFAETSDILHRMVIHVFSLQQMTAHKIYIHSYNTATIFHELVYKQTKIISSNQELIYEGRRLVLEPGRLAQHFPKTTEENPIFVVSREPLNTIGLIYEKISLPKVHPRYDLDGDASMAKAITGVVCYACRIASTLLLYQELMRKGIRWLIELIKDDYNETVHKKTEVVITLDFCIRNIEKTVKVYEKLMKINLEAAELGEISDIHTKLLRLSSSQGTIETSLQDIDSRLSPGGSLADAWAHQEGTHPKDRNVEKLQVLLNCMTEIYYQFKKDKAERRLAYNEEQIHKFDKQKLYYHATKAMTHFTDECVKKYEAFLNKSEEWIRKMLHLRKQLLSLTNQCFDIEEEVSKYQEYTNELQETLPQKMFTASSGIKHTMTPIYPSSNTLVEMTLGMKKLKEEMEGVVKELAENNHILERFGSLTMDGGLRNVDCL
From the text: (§1) The protein kinase complement of the human genome (the kinome) was described previously (Manning et al., 2002. Science 298(5600):1912-1934). Sequence accession numbers are defined by the International Protein Index (IPI) (Kersey et al., 2004. Proteomics 4(7):1985-1988).

kinases (kinome) [2] = target: T2, kinases (kinome) (Homo sapiens, UniProt P36897); conditions: TGFbR1 (TKL), IPI00005733
T2 construct: determined in kinobeads assays with mass spectrometry detection of kinases as described previously; endogenous in cells; host or cells: cell lysate
T2 sequence (P36897 34-503): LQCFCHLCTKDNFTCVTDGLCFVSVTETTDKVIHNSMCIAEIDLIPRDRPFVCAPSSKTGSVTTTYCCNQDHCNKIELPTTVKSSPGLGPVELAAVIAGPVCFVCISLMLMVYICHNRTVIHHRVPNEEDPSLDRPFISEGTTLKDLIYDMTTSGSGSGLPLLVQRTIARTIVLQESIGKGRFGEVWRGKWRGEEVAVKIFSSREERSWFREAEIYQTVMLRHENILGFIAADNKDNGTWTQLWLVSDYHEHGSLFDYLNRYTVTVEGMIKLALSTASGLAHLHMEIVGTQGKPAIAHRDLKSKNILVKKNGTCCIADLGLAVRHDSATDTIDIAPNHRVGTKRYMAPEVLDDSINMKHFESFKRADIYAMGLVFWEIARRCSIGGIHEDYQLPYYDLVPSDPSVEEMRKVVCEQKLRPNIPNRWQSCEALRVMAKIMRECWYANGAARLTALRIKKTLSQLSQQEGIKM
From the text: as §1

kinases (kinome) [3] = target: T3, kinases (kinome) (Homo sapiens, UniProt Q13131); conditions: AMPKa1 (CAMK), IPI00410287
T3 construct: determined in kinobeads assays with mass spectrometry detection of kinases as described previously; endogenous in cells; host or cells: cell lysate
From the text: as §1

kinases (kinome) [4] = target: T4, kinases (kinome) (Homo sapiens, UniProt P25440); conditions: BRD2 (Atypical), IPI00440502
T4 construct: determined in kinobeads assays with mass spectrometry detection of kinases as described previously; endogenous in cells; host or cells: cell lysate
From the text: as §1

kinases (kinome) [5] = target: T5, kinases (kinome) (Homo sapiens, UniProt Q14164); conditions: IKKe (Other), IPI00029045
T5 construct: determined in kinobeads assays with mass spectrometry detection of kinases as described previously; endogenous in cells; host or cells: cell lysate
T5 sequence (Q14164 1-716): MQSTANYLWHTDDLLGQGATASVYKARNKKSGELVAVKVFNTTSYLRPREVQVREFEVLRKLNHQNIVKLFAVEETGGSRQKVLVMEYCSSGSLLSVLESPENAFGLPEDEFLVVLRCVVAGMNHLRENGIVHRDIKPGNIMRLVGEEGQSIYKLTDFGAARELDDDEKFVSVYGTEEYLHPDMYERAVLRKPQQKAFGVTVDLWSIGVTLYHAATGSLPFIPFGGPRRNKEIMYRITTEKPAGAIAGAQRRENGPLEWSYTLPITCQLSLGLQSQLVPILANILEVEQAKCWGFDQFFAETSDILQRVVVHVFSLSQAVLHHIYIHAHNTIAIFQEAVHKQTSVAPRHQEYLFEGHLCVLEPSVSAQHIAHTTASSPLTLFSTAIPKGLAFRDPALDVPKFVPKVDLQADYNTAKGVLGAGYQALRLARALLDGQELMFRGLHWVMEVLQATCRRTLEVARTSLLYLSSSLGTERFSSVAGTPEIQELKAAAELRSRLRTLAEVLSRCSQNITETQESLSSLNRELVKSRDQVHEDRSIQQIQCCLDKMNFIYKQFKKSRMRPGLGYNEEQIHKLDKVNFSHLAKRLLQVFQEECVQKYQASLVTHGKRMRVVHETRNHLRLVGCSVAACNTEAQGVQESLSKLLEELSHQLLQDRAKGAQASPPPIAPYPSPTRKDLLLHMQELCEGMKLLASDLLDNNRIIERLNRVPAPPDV
From the text: as §1

kinases (kinome) [6] = target: T6, kinases (kinome) (Homo sapiens, UniProt Q9BQI3); conditions: HRI (Other), IPI00328149
T6 construct: determined in kinobeads assays with mass spectrometry detection of kinases as described previously; endogenous in cells; host or cells: cell lysate
From the text: as §1

kinases (kinome) [7] = target: T7, kinases (kinome) (Homo sapiens, UniProt Q13557); conditions: CaMK2d (CAMK), IPI00828081
T7 construct: determined in kinobeads assays with mass spectrometry detection of kinases as described previously; endogenous in cells; host or cells: cell lysate
From the text: as §1

kinases (kinome) [8] = target: T8, kinases (kinome) (Homo sapiens, UniProt Q13705); conditions: ACTR2B (TKL), IPI00437565
T8 construct: determined in kinobeads assays with mass spectrometry detection of kinases as described previously; endogenous in cells; host or cells: cell lysate
From the text: as §1

kinases (kinome) [9] = target: T9, kinases (kinome) (Homo sapiens, UniProt Q96RR4); conditions: CaMKK2 (Other), IPI00290239
T9 construct: determined in kinobeads assays with mass spectrometry detection of kinases as described previously; endogenous in cells; host or cells: cell lysate
From the text: as §1

Measured: pIC50

T9 sequence (Q96RR4 whole entry): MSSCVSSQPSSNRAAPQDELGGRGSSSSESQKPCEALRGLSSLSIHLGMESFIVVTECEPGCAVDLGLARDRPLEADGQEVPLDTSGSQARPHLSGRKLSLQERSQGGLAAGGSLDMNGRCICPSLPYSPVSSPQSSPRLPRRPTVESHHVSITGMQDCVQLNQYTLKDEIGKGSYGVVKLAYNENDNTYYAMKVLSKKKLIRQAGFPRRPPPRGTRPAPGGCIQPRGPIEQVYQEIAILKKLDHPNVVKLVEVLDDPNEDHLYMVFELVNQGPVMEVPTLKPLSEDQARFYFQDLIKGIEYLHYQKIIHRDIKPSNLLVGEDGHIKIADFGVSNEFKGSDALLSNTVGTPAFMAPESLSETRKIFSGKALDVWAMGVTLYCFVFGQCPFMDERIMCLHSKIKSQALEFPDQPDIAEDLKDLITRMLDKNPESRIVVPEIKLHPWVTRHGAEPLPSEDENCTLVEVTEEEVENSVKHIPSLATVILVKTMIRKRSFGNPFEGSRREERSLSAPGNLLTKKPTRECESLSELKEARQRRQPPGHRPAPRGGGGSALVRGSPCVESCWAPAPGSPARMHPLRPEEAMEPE
T7 sequence (Q13557 whole entry): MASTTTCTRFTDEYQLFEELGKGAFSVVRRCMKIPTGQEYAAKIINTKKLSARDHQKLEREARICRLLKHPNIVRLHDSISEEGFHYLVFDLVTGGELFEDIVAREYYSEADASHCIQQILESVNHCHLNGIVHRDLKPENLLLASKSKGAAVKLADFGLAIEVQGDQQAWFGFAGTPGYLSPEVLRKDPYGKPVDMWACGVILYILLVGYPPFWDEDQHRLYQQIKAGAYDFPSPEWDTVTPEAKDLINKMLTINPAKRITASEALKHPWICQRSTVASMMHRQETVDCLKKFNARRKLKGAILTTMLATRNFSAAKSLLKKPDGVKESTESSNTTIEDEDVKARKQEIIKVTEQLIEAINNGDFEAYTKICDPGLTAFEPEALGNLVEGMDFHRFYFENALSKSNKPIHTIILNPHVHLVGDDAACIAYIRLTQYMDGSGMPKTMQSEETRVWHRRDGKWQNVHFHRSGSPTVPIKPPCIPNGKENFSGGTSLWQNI
T4 sequence (P25440 whole entry): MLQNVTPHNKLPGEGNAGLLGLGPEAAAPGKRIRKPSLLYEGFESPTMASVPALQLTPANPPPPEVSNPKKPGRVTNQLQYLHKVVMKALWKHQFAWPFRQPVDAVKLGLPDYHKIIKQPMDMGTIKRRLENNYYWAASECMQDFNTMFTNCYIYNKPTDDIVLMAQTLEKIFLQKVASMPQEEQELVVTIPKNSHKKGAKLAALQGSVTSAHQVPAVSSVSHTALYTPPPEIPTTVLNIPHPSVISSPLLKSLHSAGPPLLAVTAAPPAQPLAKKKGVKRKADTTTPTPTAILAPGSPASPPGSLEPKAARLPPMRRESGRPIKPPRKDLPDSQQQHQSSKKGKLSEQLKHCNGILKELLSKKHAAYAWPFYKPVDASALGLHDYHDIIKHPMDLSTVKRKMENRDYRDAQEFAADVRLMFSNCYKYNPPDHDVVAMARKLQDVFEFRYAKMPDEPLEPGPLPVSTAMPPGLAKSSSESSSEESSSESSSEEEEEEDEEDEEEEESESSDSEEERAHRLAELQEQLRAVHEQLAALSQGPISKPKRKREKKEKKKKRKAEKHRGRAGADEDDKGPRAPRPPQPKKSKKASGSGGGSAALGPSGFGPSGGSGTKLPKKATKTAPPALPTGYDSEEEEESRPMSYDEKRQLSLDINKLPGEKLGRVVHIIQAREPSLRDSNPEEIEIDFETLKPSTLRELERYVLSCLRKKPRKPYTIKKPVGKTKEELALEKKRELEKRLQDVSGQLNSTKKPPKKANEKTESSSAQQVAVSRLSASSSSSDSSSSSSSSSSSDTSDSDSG
T3 sequence (Q13131 whole entry): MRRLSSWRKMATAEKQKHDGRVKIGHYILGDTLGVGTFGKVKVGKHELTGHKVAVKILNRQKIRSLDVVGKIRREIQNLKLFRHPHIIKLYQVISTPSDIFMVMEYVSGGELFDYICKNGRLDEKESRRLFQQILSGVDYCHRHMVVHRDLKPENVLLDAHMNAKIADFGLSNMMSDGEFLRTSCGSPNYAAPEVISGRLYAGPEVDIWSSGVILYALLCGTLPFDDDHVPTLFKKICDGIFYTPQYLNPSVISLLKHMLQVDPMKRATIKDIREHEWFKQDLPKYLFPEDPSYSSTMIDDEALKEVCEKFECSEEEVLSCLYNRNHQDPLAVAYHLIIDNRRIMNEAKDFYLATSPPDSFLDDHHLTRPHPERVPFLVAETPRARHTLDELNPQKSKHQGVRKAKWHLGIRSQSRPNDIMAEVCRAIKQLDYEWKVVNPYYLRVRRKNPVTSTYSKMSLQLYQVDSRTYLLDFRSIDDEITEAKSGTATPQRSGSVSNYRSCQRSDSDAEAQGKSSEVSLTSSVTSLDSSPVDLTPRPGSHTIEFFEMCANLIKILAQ
T6 sequence (Q9BQI3 whole entry): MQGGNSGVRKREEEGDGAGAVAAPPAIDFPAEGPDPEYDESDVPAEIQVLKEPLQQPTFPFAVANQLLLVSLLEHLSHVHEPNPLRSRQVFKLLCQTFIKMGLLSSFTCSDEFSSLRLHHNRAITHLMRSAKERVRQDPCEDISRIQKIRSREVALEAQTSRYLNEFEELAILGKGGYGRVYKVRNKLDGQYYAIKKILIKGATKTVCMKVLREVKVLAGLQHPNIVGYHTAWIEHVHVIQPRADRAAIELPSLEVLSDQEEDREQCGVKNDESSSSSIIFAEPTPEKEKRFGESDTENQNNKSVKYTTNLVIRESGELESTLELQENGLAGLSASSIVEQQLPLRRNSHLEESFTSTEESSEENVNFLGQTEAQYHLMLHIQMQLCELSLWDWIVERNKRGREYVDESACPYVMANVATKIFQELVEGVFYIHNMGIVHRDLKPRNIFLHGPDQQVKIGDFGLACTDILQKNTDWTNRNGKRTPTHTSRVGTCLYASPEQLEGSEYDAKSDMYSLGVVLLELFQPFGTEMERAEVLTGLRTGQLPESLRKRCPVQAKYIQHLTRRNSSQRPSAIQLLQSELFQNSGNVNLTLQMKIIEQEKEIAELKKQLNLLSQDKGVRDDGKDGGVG
T8 sequence (Q13705 19-512): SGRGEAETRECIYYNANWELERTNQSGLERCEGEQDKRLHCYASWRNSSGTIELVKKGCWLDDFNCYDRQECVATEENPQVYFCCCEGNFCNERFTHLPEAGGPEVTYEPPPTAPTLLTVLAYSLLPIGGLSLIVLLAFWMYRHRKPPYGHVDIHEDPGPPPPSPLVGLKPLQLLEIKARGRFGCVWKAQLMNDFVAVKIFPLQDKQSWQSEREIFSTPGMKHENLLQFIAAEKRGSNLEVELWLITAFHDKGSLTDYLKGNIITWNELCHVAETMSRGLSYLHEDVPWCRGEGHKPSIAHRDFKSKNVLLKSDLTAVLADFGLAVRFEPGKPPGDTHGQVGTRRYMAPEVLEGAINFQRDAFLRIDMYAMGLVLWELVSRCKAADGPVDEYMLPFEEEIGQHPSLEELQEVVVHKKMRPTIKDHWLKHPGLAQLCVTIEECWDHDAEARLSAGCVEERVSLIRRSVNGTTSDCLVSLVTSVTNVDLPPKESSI

C[C@H]1COCCN1c1nc(-c2ccc(NC(=O)NC3CC3)cc2)cc(-c2ccccc2S(C)(=O)=O)n1 [Example 4, (S)-1-cyclopropyl-3-(4-(2-(3-methylmorpholino)-6-(2-(methylsulfonyl)phenyl)pyrimidin-4-yl)phenyl)urea]
< 5.00: all assays above

C[C@H]1COCCN1c1cc(-c2ccccc2S(C)(=O)=O)nc(-c2ccc(NC(=O)NC3CC3)cc2)n1 [Example 6, (S)-1-cyclopropyl-3-(4-(4-(3-methylmorpholino)-6-(2-(methylsulfonyl)phenyl)pyrimidin-2-yl)phenyl)urea]
not listed: kinases (kinome) [6]
< 5.00: all other assays above

CCNC(=O)Nc1ccc(-c2cc(-c3ccccc3C#N)nc(N3CCOC[C@@H]3C)n2)cc1 [Example 8, (S)-1-(4-(6-(2-cyanophenyl)-2-(3-methylmorpholino)pyrimidin-4-yl)phenyl)-3-ethylurea]
< 5.00: all assays above

C[C@H]1COCCN1c1nc(-c2ccc(NC(=O)NC3CC3)cc2)cc(-c2cc(F)ccc2S(C)(=O)=O)n1 [Example 40, (S)-1-cyclopropyl-3-(4-(6-(5-fluoro-2-(methylsulfonyl)phenyl)-2-(3-methylmorpholino)pyrimidin-4-yl)phenyl)urea]
< 5.00: all assays above

C[C@H]1COCCN1c1cc(-c2ccccn2)nc(-c2ccc(NC(=O)NCCO)cc2)n1 [Example 43, (S)-1-(2-hydroxyethyl)-3-(4-(4-(3-methylmorpholino)-6-(pyridin-2-yl)pyrimidin-2-yl)phenyl)urea]
< 5.00: all assays above

C[C@H]1COCCN1c1nc(-c2ccc(NC(=O)NC3CC3)cc2)cc(-c2cccnc2S(C)(=O)=O)n1 [Example 46, (S)-1-cyclopropyl-3-(4-(2-(3-methylmorpholino)-6-(2-(methylsulfonyl)pyridin-3-yl)pyrimidin-4-yl)phenyl)urea]
< 5.00: all assays above

C[C@H]1COCCN1c1nc(-c2ccc(NC(=O)N[C@H]3CCC[C@@H]3O)cc2)cc(-c2cc(F)ccc2S(C)(=O)=O)n1 [Example 76, 1-(4-(6-(5-fluoro-2-(methylsulfonyl)phenyl)-2-((S)-3-methylmorpholino)pyrimidin-4-yl)phenyl)-3-((1S,2S)-2-hydroxycyclopentyl)urea]
< 5.00: all assays above
